Counter-ions that a name gives are not always drawn.
Biological target: T1, IRAK-4 enzyme (Homo sapiens, UniProt Q9NWZ3)
T1 construct: purchased Millipore, USA
T1 sequence (Q9NWZ3 1-460): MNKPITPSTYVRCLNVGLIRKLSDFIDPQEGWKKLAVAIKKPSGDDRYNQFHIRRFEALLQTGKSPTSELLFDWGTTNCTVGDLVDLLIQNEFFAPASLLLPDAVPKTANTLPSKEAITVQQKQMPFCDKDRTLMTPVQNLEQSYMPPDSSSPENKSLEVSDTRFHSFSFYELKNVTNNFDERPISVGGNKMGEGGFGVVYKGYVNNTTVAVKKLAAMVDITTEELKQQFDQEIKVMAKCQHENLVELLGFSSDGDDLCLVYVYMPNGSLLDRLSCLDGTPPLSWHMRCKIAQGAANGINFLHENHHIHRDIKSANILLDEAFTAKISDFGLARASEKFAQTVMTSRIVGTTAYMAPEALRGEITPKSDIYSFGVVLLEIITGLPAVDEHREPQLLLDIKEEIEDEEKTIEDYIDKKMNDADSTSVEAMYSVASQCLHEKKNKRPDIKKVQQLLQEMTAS
Assay: IRAK-4 Biochemical Assay (TR-FRET)
Conditions: recombinant IRAK-4 kinase, 20 μM ATP; for inhibition at 0.1 µM: 0.1 μM compound; for inhibition at 1 µM: 1 μM compound
Experimental: Compounds were tested for their potential to inhibit IRAK-4 enzyme in a TR-FRET assay using recombinant IRAK-4 kinase from Millipore, USA. The assay buffer was 50 mM Tris-HCl pH 7.5, 20 mM MgCl2, 1 mM EGTA, 2 mM DTT, 3 mM MnCl2 and 0.01% Tween 20.5 ng of IRAK-4 kinase was used for the assay. After pre-incubation of enzyme with test compound for 30 minutes at room temperature, a substrate mixture containing 100 nM Biotin Histone H3 (Millipore, USA) and 20 μM ATP (Sigma, USA) was added and the reaction was incubated for 30 min. Post incubation, the reaction was stopped by the addition of stop mix containing 40 mM EDTA, 1 nM of Europium-Anti-Phospho-Histone H3 (Ser10) antibody (Perkin Elmer, USA) and 20 nM SureLight Allophycocyanin-Streptavidin (Perkin Elmer, USA). The fluorescence emission at 615 nm and 665 nm were measured at an excitation of 340 nm and the percent inhibition was estimated from the ratio of the fluorescence intensities [(F665/F615)×10000].
The compounds of the present invention were screened in the above mentioned assay and the percent inhibition data is summarized in the Table 1.

Row | SMILES | inhibition at 0.1 µM [%] | inhibition at 1 µM [%]
1 | Cn1ncc2cc(NC(=O)c3coc(-c4cccnc4N)n3)c(N3CCC(O)CC3)cc21 [Example 1, 2-(2-aminopyridin-3-yl)-N-(6-(4-hydroxypiperidin-1-yl)-1-methyl-1H-indazol-5-yl)oxazole-4-carboxamide hydrochloride] | 96 | 97
2 | Cc1cc(-c2nc(C(=O)Nc3cc4cnn(CCN(C)C)c4cc3N3CCC(O)CC3)co2)ccn1 [Example 2, N-(1-(2-(dimethylamino)ethyl)-6-(4-hydroxypiperidin-1-yl)-1H-indazol-5-yl)-2-(2-methylpyridin-4-yl)oxazole-4-carboxamide] | 95 | 98
3 | Cc1cc(-c2nc(C(=O)Nc3cc4cnn(CCN5CCOCC5)c4cc3N3CCC(O)CC3)co2)ccn1 [Example 3, N-(6-(4-hydroxypiperidin-1-yl)-1-(2-morpholinoethyl)-1H-indazol-5-yl)-2-(2-methylpyridin-4-yl)oxazole-4-carboxamide] | 97 | 100
4 | COCCCn1ncc2cc(NC(=O)c3coc(-c4ccnc(C)c4)n3)c(N3CCC(O)CC3)cc21 [Example 4, N-(6-(4-hydroxypiperidin-1-yl)-1-(3-methoxypropyl)-1H-indazol-5-yl)-2-(2-methylpyridin-4-yl)oxazole-4-carboxamide hydrochloride] | 95 | 99
5 | Cc1cc(-c2nc(C(=O)Nc3cc4cnn(CCCN5CCOCC5)c4cc3N3CCC(O)CC3)co2)ccn1 [Example 5, N-(6-(4-hydroxypiperidin-1-yl)-1-(3-morpholinopropyl)-1H-indazol-5-yl)-2-(2-methylpyridin-4-yl)oxazole-4-carboxamide] | 94 | 99
6 | Cc1cc(-c2nc(C(=O)Nc3cc4cnn(CCN5CCN(C)CC5)c4cc3N3CCC(O)CC3)co2)ccn1 [Example 6, N-(6-(4-hydroxypiperidin-1-yl)-1-(2-(4-methylpiperazin-1-yl)ethyl)-1H-indazol-5-yl)-2-(2-methylpyridin-4-yl)oxazole-4-carboxamide] | 79 | 96
7 | COCCn1ncc2cc(NC(=O)c3coc(-c4ccnc(N)c4)n3)c(N3CCC(O)CC3)cc21 [Example 7, 2-(2-aminopyridin-4-yl)-N-(6-(4-hydroxypiperidin-1-yl)-1-(2-methoxyethyl)-1H-indazol-5-yl)oxazole-4-carboxamide hydrochloride] | 96 | 98
8 | Cc1nn(C)c2cc(N3CCC(CO)CC3)c(NC(=O)c3cnn4cccnc34)cc12 [Example 8, N-(6-(4-(hydroxymethyl)piperidin-1-yl)-1,3-dimethyl-1H-indazol-5-yl)pyrazolo[1,5-a]pyrimidine-3-carboxamide hydrochloride] | 43 | 91
9 | COCCn1nc(C)c2cc(NC(=O)c3coc(-c4ccnc(N)c4)n3)c(N3CCC(O)CC3)cc21 [Example 9, 2-(2-aminopyridin-4-yl)-N-(6-(4-hydroxypiperidin-1-yl)-1-(2-methoxyethyl)-3-methyl-1H-indazol-5-yl)oxazole-4-carboxamide] | 97 | 99
10 | COCCn1nc(C)c2cc(NC(=O)c3coc(-c4ccnc(N)c4)n3)c(N3CCC(CO)CC3)cc21 [Example 10, 2-(2-aminopyridin-4-yl)-N-(6-(4-(hydroxymethyl)piperidin-1-yl)-1-(2-methoxyethyl)-3-methyl-1H-indazol-5-yl)oxazole-4-carboxamide hydrochloride] | 99 | 99
11 | Cc1nn(C)c2cc(N3CCC(CO)CC3)c(NC(=O)c3coc(-c4cc(F)c(=O)n(C)c4)n3)cc12 [Example 11, 2-(5-fluoro-1-methyl-6-oxo-1,6-dihydropyridin-3-yl)-N-(6-(4-(hydroxymethyl)piperidin-1-yl)-1,3-dimethyl-1H-indazol-5-yl)oxazole-4-carboxamide hydrochloride] | 26 | 59
12 | C=CCOCC1CCN(c2cc3c(cc2NC(=O)c2coc(-c4ccnc(N)c4)n2)c(C)nn3C)CC1 [Example 12, N-(6-(4-((allyloxy)methyl)piperidin-1-yl)-1,3-dimethyl-1H-indazol-5-yl)-2-(2-aminopyridin-4-yl)oxazole-4-carboxamide] | 95 | 96
13 | Cc1cc(-c2nc(C(=O)Nc3cc4cn(C)nc4nc3N3CCCCC3)co2)ccn1 [Example 13, N-(2-methyl-6-(piperidin-1-yl)-2H-pyrazolo[3,4-b]pyridin-5-yl)-2-(2-methylpyridin-4-yl)oxazole-4-carboxamide hydrochloride] | 98 | 99
14 | Cn1cc2cc(NC(=O)c3cccc(N4CC[C@H](O)C4)n3)c(N3CCCCC3)nc2n1 [Example 14, (S)-6-(3-hydroxypyrrolidin-1-yl)-N-(2-methyl-6-(piperidin-1-yl)-2H-pyrazolo[3,4-b]pyridin-5-yl)picolinamide] | 57 | 94
15 | Cn1cc2cc(NC(=O)c3cccc(N4CC[C@H](N)C4)n3)c(N3CCCCC3)nc2n1 [Example 15, (S)-6-(3-aminopyrrolidin-1-yl)-N-(2-methyl-6-(piperidin-1-yl)-2H-pyrazolo[3,4-b]pyridin-5-yl)picolinamide] | 34 | 78
16 | Cc1cc(-c2nc(C(=O)Nc3cc4cnn(C)c4nc3N3CCCCC3)co2)ccn1 [Example 16, N-(1-methyl-6-(piperidin-1-yl)-1H-pyrazolo[3,4-b]pyridin-5-yl)-2-(2-methylpyridin-4-yl)oxazole-4-carboxamide] | 99 | 99
17 | Cn1cc2cc(NC(=O)c3coc(N4CC[C@H](N)C4)n3)c(N3CCCCC3)nc2n1 [Example 17, (S)-2-(3-aminopyrrolidin-1-yl)-N-(2-methyl-6-(piperidin-1-yl)-2H-pyrazolo[3,4-b]pyridin-5-yl)oxazole-4-carboxamide] |  | 90
18 | Cn1cc2cc(NC(=O)c3coc(N4CC[C@H](O)C4)n3)c(N3CCCCC3)nc2n1 [Example 18, (S)-2-(3-hydroxypyrrolidin-1-yl)-N-(2-methyl-6-(piperidin-1-yl)-2H-pyrazolo[3,4-b]pyridin-5-yl)oxazole-4-carboxamide] |  | 93
19 | C[C@H](O)Cn1cc(-c2cccc(C(=O)Nc3cc4cn(C)nc4nc3N3CCCCC3)n2)cn1 [Example 19, (S)-6-(1-(2-hydroxypropyl)-1H-pyrazol-4-yl)-N-(2-methyl-6-(piperidin-1-yl)-2H-pyrazolo[3,4-b]pyridin-5-yl)picolinamide] |  | 96
20 | Cc1cnccc1-c1nc(C(=O)Nc2cc3cn(C)nc3nc2N2CC[C@H](O)C2)co1 [Example 20, (S)—N-(6-(3-hydroxypyrrolidin-1-yl)-2-methyl-2H-pyrazolo[3,4-b]pyridin-5-yl)-2-(3-methylpyridin-4-yl)oxazole-4-carboxamide] |  | 72
21 | Cc1cc(-c2nc(C(=O)Nc3cc4cn(C)nc4nc3N3CC[C@H](O)C3)co2)ccn1 [Example 21, (S)—N-(6-(3-hydroxypyrrolidin-1-yl)-2-methyl-2H-pyrazolo[3,4-b]pyridin-5-yl)-2-(2-methylpyridin-4-yl)oxazole-4-carboxamide] |  | 89
22 | Cn1cc2cc(NC(=O)c3coc(N4CC[C@H](O)C4)n3)c(C3CC3)nc2n1 [Example 22, (S)—N-(6-cyclopropyl-2-methyl-2H-pyrazolo[3,4-b]pyridin-5-yl)-2-(3-hydroxypyrrolidin-1-yl)oxazole-4-carboxamide] |  | 65
23 | Cc1cc(-c2nc(C(=O)Nc3cc4cnn(C)c4nc3N3CC[C@H](O)C3)co2)ccn1 [Example 23, (S)—N-(6-(3-hydroxypyrrolidin-1-yl)-1-methyl-1H-pyrazolo[3,4-b]pyridin-5-yl)-2-(2-methylpyridin-4-yl)oxazole-4-carboxamide] |  | 33
24 | Cn1cc2cc(NC(=O)c3coc(-c4ccnc(N)c4)n3)c(N3CCCCC3)nc2n1 [Example 24] | 99 | 99
25 | COCCn1ncc2cc(NC(=O)c3coc(-c4ccnc(C)c4)n3)c(N3CCC(O)CC3)nc21 [Example 25, N-(6-(4-hydroxypiperidin-1-yl)-1-(2-methoxyethyl)-1H-pyrazolo[3,4-b]pyridin-5-yl)-2-(2-methylpyridin-4-yl)oxazole-4-carboxamide] | 67 | 97
